Measurements reported in patent US20240026086A1, “POLYPHENOL DERIVATIVE AND POLYMER MATERIAL” (TOPPAN INC., priority 2020, published 2024).

System: E. coli
Assay: Antibacterial test of coating films on glass substrate in accordance with JIS 22801
Format: cell-based
Settings: against E. coli
Description: The polyphenol derivatives (polyphenol derivatives 1 to 4) in Examples 1 to 4 and the tannic acid in Comparative Example 1 were each applied by the above method onto a 5 cm×5 cm glass substrate at a weight of 1.2 mg/cm 2 to yield a coating film. The glass substrate samples in Examples and Comparative Example each having the coating film formed by the above method were subjected to antibacterial test by a method in accordance with JIS 22801, and antibacterial activity values (against E. coli) were determined.

O=C(OC[C@H]1O[C@@H](OC(=O)c2cc(O)c(O)c(OC(=O)c3cc(O)c(O)c(O)c3)c2)[C@H](OC(=O)c2cc(O)c(O)c(OC(=O)c3cc(O)c(O)c(O)c3)c2)[C@@H](OC(=O)c2cc(O)c(O)c(OC(=O)c3cc(O)c(O)c(O)c3)c2)[C@@H]1OC(=O)c1cc(O)c(O)c(OC(=O)c2cc(O)c(O)c(O)c2)c1)c1cc(O)c(O)c(OC(=O)c2cc(O)c(O)c(O)c2)c1 [compound 1, tannic acid]
Antibacterial test (antibacterial activity value) (coating film 1.2 mg/cm 2 on 5 cm×5 cm glass substrate): >5.8
antibacterial activity (in words) (coating film): antibacterial activity was sufficiently achieved
